Reference: patent US20240033277A1, “METHODS FOR TREATING AUTOIMMUNE DISEASES” (NEW YORK SOCIETY FOR THE RELIEF OF THE RUPTURED AND …, priority 2020, published 2024)
Entries after “also recorded” stand apart in the source; their conditions may differ.

Legend:
TLR9-activated pDCs [1] = assay: Secreted IFN-α (ELISA) from pDCs activated with TLR9 agonist; type: cell-based, human
TLR9-activated pDCs [2] = assay: IFNA gene expression (Q-PCR) in pDCs activated with TLR9 agonist CpG-C274; type: cell-based, human; settings: for IFNA (IFN-I) expression in TLR9-activated pDCs: UK5099 at 10, 20, and 40 μM or CB839 at 0.5 μM for 1 h, FIGS. 11B-11C; for IFNA expression in TLR9-activated pDCs under ER stress plus IRE1α inhibitor: TM or TG with MKC8866 at 1 μM or 4μ8c at 10 μM for 3 h, FIGS. 1F, 1G, 6C, 6D
pDCs [3] = assay: Intracellular pyruvate in pDCs (pyruvate detection kit); type: cell-based, human; settings: then TLR9 agonist for 2.5 h, FIGS. 2K, 2L
Protocol: (§1) Intracellular pyruvate were determined in pDCs by pyruvate detection kit (Cayman chemicals: 700470) as per the manufacture protocol. pDC cultured in RPMI medium were washed in 1 ml of PBS and centrifuged at 10000×g for 5 min at 4° C. Supernatants were removed, and cells were deproteinated in 0.5 ml of 0.5M MPA on ice for 5 min, followed by centrifugation at 10000×g for 5 min at 4° C. The deproteinated samples were neutralized with 25 μl of potassium carbonate, and then centrifugation at 10000×g for 5 min at 4° C. The supernatant was removed and deproteinated samples were used for pyruvate assay. For ATP determination, ATP determination kit (Sigma: A22066) was used in pDCs extracts as per the manufacture protocol.

pDCs [4] = assay: Intracellular ATP in pDCs (ATP determination kit); type: cell-based, human; settings: then TLR9 agonist
Protocol: as §1, with “Supernatants” for “Intracellular pyruvate were determined in pDCs by pyruvate detection kit (Cayman chemicals: 700470) as per the manufacture protocol. pDC cultured in RPMI medium were washed in 1 ml of PBS and centrifuged at 10000×g for 5 min at 4° C. Supernatants”

pDCs [5] = assay: UPR and ER stress gene expression in pDCs (RNA-seq, Q-PCR); type: cell-based, human
TLR9-activated pDCs [6] = assay: IL-6 gene expression (Q-PCR) in TLR9-activated pDCs; type: cell-based, human; settings: TM or TG for 3 h, then TLR9 agonist; quantified at 5 h; FIG. 5F
pDCs [7] = assay: Serine biosynthesis gene expression (PHGDH, PSAT1, PSPH; Q-PCR) in pDCs; type: cell-based, human
pDCs [8] = assay: IFN-α expression in pDCs cultured with ER stress inducers alone; type: cell-based, human; settings: TM at 3 μg/ml or TG at 0.5 μM, no TLR agonist; FIGS. 1A, 1B
pDCs [9] = tested on: pDCs
Protocol: (§2) After 6-8 h of cell culture, pDCs were washed in PBS and then resuspending in FACS buffer and stained with DAPI. Cells were acquired by a fluorescence activated cell sorter (FACS) and analysis was performed using FlowJo analysis software. The gating strategy for viable cells involved progressively measuring total cells without uptake of DAPI.
(§3) Cell viability using Flow cytometry. After 6 h of cell culture, pDCs were washed in PBS and then resuspended in FACS buffer and stained with DAPI. Cells were acquired by a fluorescence activated cell sorter (FACS) and analysis was performed using FlowJo analysis software. The gating strategy for viable cells involved progressively measuring total cells without uptake of DAPI.

[10] = tested on: IRE1α-XBP1 signaling in pDCs; assay: XBP1 splicing (Q-PCR) in pDCs; type: cell-based, human
TLR9-activated pDCs [11] = assay: IFN-I gene and interferon-stimulated gene (ISG) expression in TLR9-activated pDCs (RNA-seq, Q-PCR); type: cell-based, human; settings: CPI-613 at 100 & 200 μM for 1 h, then TLR9 agonist for 5 h; FIGS. 8A-8E
pDCs of SSc patients [12] = assay: IFN-inducible gene expression in pDCs of patients with SSc; type: cell-based, human; settings: CPI-613 at 200 μM for 13 h; FIG. 4G
pDCs of SSc patients [13] = assay: Secreted CXCL4 (ELISA) from pDCs of patients with SSc; type: cell-based, human; settings: CPI-613 at 200 μM for 13 h, FIG. 4H
pDCs [14] = assay: Cell viability of pDCs by flow cytometry (DAPI); settings: CPI-613 at 100 & 200 μM for 1 h, then TLR9 agonist for 5 h; FIG. 8F
Protocol: as §2, §3

[15] = then CpG-C274 0.075 μM, 5 h, normalized to TLR9 agonist

With N[C@@H](CO)C(=O)O [L-serine] the “IFN-α secretion by TLR9-activated pDCs” value (TLR9-activated pDCs [1]; L-serine 1 mg/ml for 1 h, then TLR9 agonist, 13 h, FIG. 2J) was “unaltered”.

N#C/C(=C\c1cn(-c2ccccc2)c2ccccc12)C(=O)O [UK5099] was tested, and the “IFNA (IFN-I) expression in TLR9-activated pDCs” value (TLR9-activated pDCs [2]; [15]) was “Inhibit”.

In the case of O=C(Cc1cccc(OC(F)(F)F)c1)Nc1ccc(CCCCc2nnc(NC(=O)Cc3ccccn3)s2)nn1 [CB839], the “IFNA (IFN-I) expression in TLR9-activated pDCs” value (TLR9-activated pDCs [2]; [15]) is reported as “Inhibit”.

COc1cc2c(C)c(CC(=O)N3CCOCC3)c(=O)oc2c(C=O)c1O [MKC8866] was tested, and the “IFNA expression in TLR9-activated pDCs under ER stress plus IRE1α inhibitor” value (TLR9-activated pDCs [2]; then TLR9 agonist, 5 h) was “prevented ER stress-driven inhibition of IFN-α”.

In the case of Cc1cc(C)nc(NC(=S)N2CCN(Cc3ccc(C(F)(F)F)cc3)CC2)c1 [NCT-503], the “IFNA expression by TLR9-activated pDCs facing ER stress plus PHGDH inhibitor” value (TLR9-activated pDCs [2]; TM or TG with NCT-503 at 2 μM for 3 h, then TLR9 agonist, 5 h, FIGS. 2H, 2I) is reported as “restored”, the “intracellular pyruvate levels in ER stressed-pDCs plus PHGDH inhibitor” value (pDCs [3]; TM or TG with NCT-503 at 2 μM for 3 h) is reported as “restored” and the “intracellular ATP levels under ER stress plus PHGDH inhibitor” value (pDCs [4]; tunicamycin with NCT-503 at 2 μM for 3 h, 2.5 h, FIG. 3I) is reported as “restored”.

With C/C=C(/C)C(=O)O[C@H]1C(C)=C2[C@H]([C@@H]1OC(=O)CCCCCCC)[C@@](C)(OC(C)=O)C[C@H](OC(=O)CCC)[C@@]1(O)[C@H]2OC(=O)[C@@]1(C)O [thapsigargin, Thapsigargin] the “expression levels of IFNA in response to TLR9” value (TLR9-activated pDCs [2]; TM 3 μg/ml or TG 0.5 μM for 3 h, then CpG-C274 0.075 μM, quantified at 5 h, normalized to TLR9 agonist, FIG. 1A) was “drastically inhibited”, the “induction of the unfolded protein response (UPR), RNA-seq” value (pDCs [5]; pDCs from HDs cultured 8 h, TM at 3 μg/ml or TG at 0.5 μM vs media alone, FIGS. 5A-5D) was “strong induction” and the “effect on IL-6 expression” value (TLR9-activated pDCs [6]) was “negligible effects”. The PHGDH gene expression (pDCs [7]; TM or TG for 3 h, followed by TLR9 agonist for 5 h, FIG. 2D) was “markedly induced”, the “serine biosynthesis gene expression (PHGDH, PSAT1, PSPH), irrespective of TLR9 signaling” value (pDCs [7]; TM or TG for 3 h, followed by TLR9 agonist for 5 h, FIGS. 2D, 7C, 7D) was “induction” and the “intracellular pyruvate levels in ER stressed-pDCs” value (pDCs [3]; TM or TG for 3 h) was “significantly reduced”. The “intracellular ATP levels under ER stress” value (pDCs [4]; TM or TG for 3 h, 2.5 h, normalized to medium, FIGS. 3E-3H) was “reduced”, the “capacity to express IFN-α with ER stress inducer alone” value (pDCs [8]) was “not impacted” and the effect on viability (pDCs [9]) was “negligible effects”.

For Cc1cc(=O)oc2c(C=O)c(O)ccc12 [4μ8c], the “IFNA expression in TLR9-activated pDCs under ER stress plus IRE1α inhibitor” value (TLR9-activated pDCs [2]; then TLR9 agonist, 5 h) was “prevented ER stress-driven inhibition of IFN-α”.

With O=C(O)CCCCC(CCSCc1ccccc1)SCc1ccccc1 (stereo not drawn) [CPI-613, 6,8-bis-benzylthio-octanoic acid] the “IFNA expression in TLR9-activated pDCs” value (TLR9-activated pDCs [2]; CPI-613 at 100 μM & 200 μM for 1 h, then TLR9 agonist, 5 h, FIG. 3J) was “inhibited; also recorded: reduces”, the “secretion of IFN-α by TLR9-activated pDCs” value (TLR9-activated pDCs [1]; CPI-613 at 100 μM & 200 μM for 1 h, then TLR9 agonist, 13 h, FIG. 3K) was “inhibited” and the “induction of IFN-α by TLR9-stimulated pDCs in the presence of CXCL4” value (TLR9-activated pDCs [1]; CPI-613 at 200 μM for 1 h, then TLR9 agonist with CXCL4, 13 h ELISA, FIG. 4F) was “abrogated”. The “effect on XBP1 splicing” value ([10]; CPI-613 at 100 & 200 μM for 1 h, then TLR9 agonist for 5 h, FIG. 8G) was “no effect”, the “effect on expression of PHGDH” value (pDCs [7]; CPI-613 at 100 & 200 μM for 1 h, then TLR9 agonist for 5 h, FIG. 8H) was “no effect” and the “intracellular ATP levels in TLR9-activated pDCs” value (pDCs [4]; CPI-613 at 100 μM & 200 μM for 1 h, 4 h, normalized to medium, FIG. 3L) was “reduced”. The “expression of ISGs such as GBP1, IRF7, ISG54, MxB, CXCL10” value (TLR9-activated pDCs [11]) was “inhibited”, the “expression of IFN-inducible genes (GBP1, IRF7, ISG54, MxB, OAS2) by pDCs of SSc patients” value (pDCs of SSc patients [12]) was “drastically reduced” and the “secretion of CXCL4” value (pDCs of SSc patients [13]) was “no effect”. The “effect on cell viability” value (pDCs [14]) was “no effect”.

In the case of Cc1ccc(OCCN(C)C(=O)Cn2cc(NC(=O)CCOc3ccccc3)cn2)cc1 [IXA4], the “IFNA expression in TLR9-activated pDCs” value (TLR9-activated pDCs [2]; IXA4 at 10 μM & 30 μM for 1 h, then TLR9 agonist, 5 h, FIG. 1I) is reported as “abrogated”, the XBP1 splicing ([10]; IXA4 at 10 μM & 30 μM for 6 h, FIG. 1H) is reported as “enhanced” and the PHGDH gene expression (pDCs [7]; IXA4 at 30 μM for 6 h, normalized to medium, FIG. 2F) is reported as “conversely induced”.

CC(=O)C(=O)[O-].[Na+] [pyruvate, sodium pyruvate] was tested, and the “IFNA expression by TLR9-activated pDCs under ER stress with metabolite supplementation” value (TLR9-activated pDCs [2]; TM or TG with sodium pyruvate 10 mM or α-KG 10 mM for 3 h, then TLR9 agonist, 5 h, FIGS. 3A-3D) was “sufficient to restore” and the “intracellular ATP levels under ER stress with metabolite supplementation” value (pDCs [4]; TM or TG with pyruvate 10 mM or α-KG 10 mM for 3 h, 2.5 h, FIGS. 3E-3H) was “restored”.

B1: CXCL4: chemokine CXCL4 (Sigma: SRP3142) added to pDC culture at 3 μg/ml (protein, UniProt P02776 32-101, looked up)
Platelet factor 4: EAEEDGDLQCLCVKTTSQVRPRHITSLEVIKAGPHCPTAQLIATLKNGRKICLDLQAPLYKKIIKKLLES
With B1 the “IFN-α expression by TLR9-activated pDCs undergoing ER stress” value (TLR9-activated pDCs [2]; tunicamycin 3 h, then TLR9 agonist with CXCL4 3 μg/ml, 5 h, FIG. 10A) was “restore”, the “IFN-α secretion by TLR9-activated pDCs undergoing ER stress” value (TLR9-activated pDCs [1]; tunicamycin 3 h, then TLR9 agonist with CXCL4 3 μg/ml, 13 h, FIG. 4C) was “restore” and the “expression of UPR genes (XBP1, spliced XBP1, HSPA5, DNAJB9) facing ER stress” value (pDCs [5]; tunicamycin 3 h, then TLR9 agonist with CXCL4 3 μg/ml, 5 h, FIG. 4D) was “significant decrease”. For the same molecule, the “PHGDH upregulation under ER stress” value (pDCs [7]; tunicamycin 3 h, then TLR9 agonist with CXCL4 3 μg/ml, 5 h, FIG. 4E) was “dampened”.
